From US12624034B2, “Non-covalent modifiers of AKT1 and uses thereof” (Terremoto Biosciences, Inc., priority 2023, dated 2026)
Read-outs that look alike come from different tables or passages of the source.

Tests used:
[1] = biological target: T1, AKT1 WT (Homo sapiens, UniProt P31749); assay: Live cell AKT1 WT target engagement by NanoBRET competitive probe displacement in HEK293 cells; format: binding; settings: 2 h at 37° C., read-out: AKT1 WT IC50
T1 construct: expressed in transfected cells; host or cells: HEK293
T1 sequence (P31749 whole entry): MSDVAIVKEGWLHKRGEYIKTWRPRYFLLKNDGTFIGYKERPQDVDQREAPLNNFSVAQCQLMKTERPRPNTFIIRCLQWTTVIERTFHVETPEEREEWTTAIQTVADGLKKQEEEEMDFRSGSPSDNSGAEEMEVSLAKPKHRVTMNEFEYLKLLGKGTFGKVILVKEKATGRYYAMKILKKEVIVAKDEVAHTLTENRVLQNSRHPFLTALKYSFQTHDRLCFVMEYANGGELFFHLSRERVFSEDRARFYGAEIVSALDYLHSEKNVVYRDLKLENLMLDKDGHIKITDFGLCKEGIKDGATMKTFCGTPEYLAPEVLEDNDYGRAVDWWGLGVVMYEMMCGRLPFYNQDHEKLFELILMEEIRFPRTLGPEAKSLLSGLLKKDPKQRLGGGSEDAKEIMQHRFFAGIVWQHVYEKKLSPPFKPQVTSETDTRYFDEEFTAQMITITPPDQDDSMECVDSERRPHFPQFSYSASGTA

[2] = biological target: T2, AKT2 (Homo sapiens, UniProt P31751); assay: Live cell AKT2 target engagement by NanoBRET competitive probe displacement in HEK293 cells; format: binding; settings: 2 h at 37° C., read-out: AKT2 IC50
T2 construct: expressed in transfected cells; host or cells: HEK293
T2 sequence (P31751 whole entry): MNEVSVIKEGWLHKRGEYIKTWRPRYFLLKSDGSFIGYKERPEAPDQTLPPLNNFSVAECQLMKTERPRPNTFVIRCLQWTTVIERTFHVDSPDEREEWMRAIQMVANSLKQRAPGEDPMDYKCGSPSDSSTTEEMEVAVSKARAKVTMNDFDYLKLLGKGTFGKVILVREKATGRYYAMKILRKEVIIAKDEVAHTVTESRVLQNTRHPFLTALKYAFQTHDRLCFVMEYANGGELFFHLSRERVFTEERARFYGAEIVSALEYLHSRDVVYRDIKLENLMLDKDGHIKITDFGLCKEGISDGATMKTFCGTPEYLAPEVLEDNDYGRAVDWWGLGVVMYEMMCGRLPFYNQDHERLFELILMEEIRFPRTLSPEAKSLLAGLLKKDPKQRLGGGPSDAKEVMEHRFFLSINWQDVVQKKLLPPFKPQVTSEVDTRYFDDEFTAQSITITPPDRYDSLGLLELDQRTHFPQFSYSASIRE

[3] = NanoBRET competitive probe displacement, live HEK293 cells
[4] = NanoBRET live cell target engagement, HEK293 cells

IC50 [1, 3] [nM] | IC50 [2, 3] [nM] | IC50 [1, 4] [nM] | IC50 [2, 4] [nM] | SMILES
25.4 | 1280 | – | – | Nc1ncccc1-c1nc2ccc(-n3ccc(NC4CC4)n3)nc2n1-c1ccc2c(c1)CC[C@@H]2NC1CCN(C(=O)C2CC2)CC1 [Compound 599]
– | – | 10.5 | 70.4 | Cc1ccc(C(=O)N[C@H]2CCc3cc(-n4c(-c5cccnc5N)nc5ccc(-c6ncc(C)s6)nc54)ccc32)cn1 [Compound 314]
18 | 404 | – | – | Nc1ncccc1-c1nc2ccc(-n3cccn3)nc2n1-c1ccc2c(c1)CC[C@@H]2NC1CCN(c2cccnc2)C1 (stereo partly shown) [Compound 472]
58.9 | 1730 | – | – | Cn1nc(C(=O)N[C@H]2CCc3cc(-n4c(-c5cccnc5N)nc5ccc(-n6cccn6)nc54)ccc32)cc1F [Compound 428]
– | – | > 1000 | > 10000 | Nc1ncccc1-c1nc2ccc(-n3cccn3)nc2n1-c1ccc2c(c1)CC[C@@H]2NC(=O)N1CCOCC1 [Compound 27, (S)—N-(5-(2-(2-aminopyridin-3-yl)-5-(1H-pyrazol-1-yl)-3H-imidazo[4,5-b]pyridin-3-yl)-2,3-dihydro-1H-inden-1-yl)morpholine-4-carboxamide]
– | – | 13.8 | 60.6 | Cc1ncccc1C(=O)N[C@H]1CCc2cc(-n3c(-c4cccnc4N)nc4c(C(F)F)cc(-n5cccn5)nc43)ccc21 [Compound 213]
19.7 | 409 | – | – | COc1ccn(-c2ccc3nc(-c4cccnc4N)n(-c4ccc5c(c4)CC[C@@H]5NC4CCN(C(=O)C5CC5)CC4F)c3n2)n1 (stereo partly shown) [Compound 512]
– | – | 76.3 | 3270 | Cc1cncc(C(=O)N[C@H]2CCc3cc(-n4c(-c5cccnc5N)nc5ccc(-n6cccn6)nc54)ccc32)n1 [Compound 186]
195 | 3020 | – | – | Cc1ccc(C(=O)N[C@H]2CCc3cc(-n4c(-c5cccnc5N)nc5ccc(-c6ncn(C)n6)nc54)ccc32)cn1 [Compound 455, (S)—N-(5-(2-(2-aminopyridin-3-yl)-5-(1-methyl-1H-1,2,4-triazol-3-yl)-3H-imidazo[4,5-b]pyridin-3-yl)-2,3-dihydro-1H-inden-1-yl)-6-methylnicotinamide]
13.9 | 278 | – | – | Nc1ncccc1-c1nc2ccc(-n3cccn3)nc2n1-c1ccc2c(c1)CC(F)[C@@H]2NC1CCc2cnccc21 (stereo partly shown) [Compound 481]
89.3 | > 10000 | – | – | Nc1ncccc1-c1nc2ccc(-n3cccn3)nc2n1-c1ccc2c(c1)CC[C@@H]2NC1CCN(C(=O)[C@H]2C[C@@H]2F)CC1 [Compound 479]
16.5 | 1440 | – | – | Cc1cc(C(F)F)ncc1C(=O)N[C@H]1CCc2cc(-n3c(-c4cccnc4N)nc4ccc(-n5nccn5)nc43)ccc21 [Compound 397]
– | – | 3.06 | 60.3 | Nc1ncccc1-c1nc2ccc(-n3cccn3)nc2n1-c1ccc2c(c1)CC[C@@H]2NC(=O)c1ccc(O)c(Cl)c1 [Compound 258]
– | – | 12.3 | 83.8 | Nc1ncccc1-c1nc2ccc(-n3cccn3)nc2n1-c1ccc2c(c1)CC[C@@H]2NC(=O)c1ccc(F)c(O)c1 [Compound 293]
– | – | 9.84 | 114 | N#Cc1cc(-n2cccn2)nc2c1nc(-c1cccnc1N)n2-c1ccc2c(c1)CC[C@@H]2NC(=O)c1ccc(C(F)F)nc1 [Compound 123, (S)—N-(5-(2-(2-aminopyridin-3-yl)-7-cyano-5-(1H-pyrazol-1-yl)-3H-imidazo[4,5-b]pyridin-3-yl)-2,3-dihydro-1H-inden-1-yl)-6-(difluoromethyl)nicotinamide]
12.1 | 452 | – | – | COc1ccn(-c2ccc3nc(-c4cccnc4N)n(-c4ccc5c(c4)CC[C@@H]5NC4CCN(C(=O)C5CC5)CC4F)c3n2)n1 (stereo partly shown) [Compound 515]
– | – | 23.9 | 617 | Nc1ncccc1-c1nc2ccc(-c3ccn(C(F)F)n3)nc2n1-c1ccc2c(c1)CC[C@@H]2n1ccnn1 [Compound 315]
68.2 | 777 | – | – | Nc1ncccc1-c1nc2ccc(-n3cccn3)nc2n1-c1ccc2c(c1)CC[C@@H]2NC1CCN(c2ccccc2)C1 (stereo partly shown) [Compound 470]
9.92 | 198 | – | – | Nc1ncccc1-c1nc2ccc(-n3nccn3)nc2n1-c1ccc2c(c1)CC[C@@H]2NC(=O)c1cnc(C2CC2)s1 [Compound 520]
37.5 | > 10000 | – | – | Nc1ncccc1-c1nc2ccc(C#C[C@@H]3CCO3)nc2n1-c1ccc2c(c1)CC[C@@H]2NC(=O)c1ccc(C(F)F)nc1 [Compound 454]
8.14 | 198 | – | – | Cc1cnsc1C(=O)N[C@H]1CCc2cc(-n3c(-c4cccnc4N)nc4ccc(-n5cccn5)nc43)ccc21 [Compound 451]
6.63 | 131 | – | – | Nc1ncccc1-c1nc2ccc(-n3cccn3)nc2n1-c1ccc2c(c1)CC[C@@H]2NC(=O)c1cc(C(F)F)ns1 [Compound 452]
– | – | 12.4 | 48.9 | CS(=O)(=O)Nc1ccc(C(=O)N[C@H]2CCc3cc(-n4c(-c5cccnc5N)nc5ccc(-n6cccn6)nc54)ccc32)cc1 [Compound 195]
– | – | 16.7 | 107 | Cc1ncccc1C(=O)N[C@@H]1c2ccc(-n3c(-c4cccnc4N)nc4ccc(-n5cccn5)nc43)cc2CC1F (stereo partly shown) [Compound 148]

IC50 [1, 3] [nM] | IC50 [2, 3] [nM] | IC50 [1, 4] [nM] | IC50 [2, 4] [nM] | SMILES
14.7 | 250 | – | – | Cn1nc(F)cc1C(=O)N[C@H]1CCc2cc(-n3c(-c4cccnc4N)nc4ccc(-n5cccn5)nc43)ccc21 [Compound 396]
– | – | 189 | 2050 | Cc1nccnc1C(=O)N[C@H]1CCc2cc(-n3c(-c4cccnc4N)nc4ccc(-c5ccn(C(F)F)n5)nc43)ccc21 [Compound 301]
15.9 | 1760 | – | – | Nc1ncccc1-c1nc2ccc(-n3cccn3)nc2n1-c1ccc2c(c1)CC[C@@H]2N(C1CC1)C1CCN(C(=O)C2CC2)CC1 [Compound 557]
36 | 1290 | – | – | COCC#Cc1ccc2nc(-c3cccnc3N)n(-c3ccc4c(c3)CC[C@@H]4NC(=O)c3ccc(C(F)F)nc3)c2n1 [Compound 409]
– | – | 21.9 | 83.5 | Nc1ncccc1-c1nc2ccc(-n3cccn3)nc2n1-c1ccc2c(c1)CC[C@@H]2NC(=O)c1cnc(C(F)F)cc1F [Compound 97]
– | – | 70 | 3220 | Nc1ncccc1-c1nc2ccc(-n3cccn3)nc2n1-c1ccc2c(c1)CC[C@@H]2NC(=O)c1cc2n(n1)CCO2 [Compound 242]
– | – | 535 | > 10000 | Cc1nccnc1C(=O)N[C@H]1CCc2cc(-n3c(-c4cccnc4N)nc4ccc(-c5ncco5)nc43)ccc21 [Compound 270]
3.52 | 37.9 | – | – | Nc1ncccc1-c1nc2ccc(-c3ccn(C(F)F)n3)nc2n1-c1ccc2c(c1)CC[C@@H]2NC(=O)c1ccc(C(F)(F)F)nc1 [Compound 421]
– | – | 168 | 4550 | Nc1ncccc1-c1nc2ccc(-n3nccn3)nc2n1-c1ccc2c(c1)CC[C@@H]2NCc1ccc(C(F)F)nc1 [Compound 234]
– | – | 7.96 | 100 | Cc1ccc(C(=O)N[C@H]2CCc3cc(-n4c(-c5cccnc5N)nc5ccc(-c6cnn(C)n6)nc54)ccc32)cn1 [Compound 268]
– | – | 9.42 | 53.1 | CCc1cc(C(=O)N[C@H]2CCc3cc(-n4c(-c5cccnc5N)nc5ccc(-n6cccn6)nc54)ccc32)ccn1 [Compound 204]
– | – | 38.8 | 1790 | Cc1ncccc1C(=O)N[C@H]1CCc2cc(-n3c(-c4cccnc4N)nc4ccc(-n5nccn5)nc43)ccc21 [Compound 93]
– | – | 330 | > 10000 | Cc1cnc(C)c(C(=O)N[C@H]2CCc3cc(-n4c(-c5cccnc5N)nc5ccc(-n6cccn6)nc54)ccc32)n1 [Compound 183]
– | – | 18.8 | 223 | Nc1ncccc1-c1nc2ccc(-n3cccn3)nc2n1-c1ccc2c(c1)CC[C@@H]2NC(=O)c1cccnc1Cl [Compound 108]
524 | > 10000 | – | – | Nc1ncccc1-c1nc2ccc(-n3cccn3)nc2n1-c1ccc2c(c1)CC(F)C2NC1CCN(C(=O)C2CC2)CC1 (stereo not shown) [Compound 522]
– | – | > 1000 | > 10000 | Nc1ncccc1-c1nc2ccc(-n3cccn3)nc2n1-c1ccc2c(c1)CC[C@@H]2NC(=O)CC1CCC(=O)N1 (stereo partly drawn) [Compound 47, N—((S)-5-(2-(2-aminopyridin-3-yl)-5-(1H-pyrazol-1-yl)-3H-imidazo[4,5-b]pyridin-3-yl)-2,3-dihydro-1H-inden-1-yl)-2-(5-oxopyrrolidin-2-yl)acetamide]
– | – | 9.54 | 86.4 | Nc1ncccc1-c1nc2ccc(-n3cccn3)nc2n1-c1ccc2c(c1)CC[C@@H]2NC(=O)c1cnc2[nH]ncc2c1 [Compound 192]
134 | 2090 | – | – | Nc1ncccc1-c1nc2ccc(-n3cccn3)nc2n1-c1ccc2c(c1)CC[C@@H]2NC1CCCc2ccncc21 (stereo partly shown) [Compound 502]
122 | 5380 | – | – | Nc1ncccc1-c1nc2ccc(-n3cccn3)nc2n1-c1ccc2c(c1)CC[C@@H]2NC1CCN(C(=O)[C@@H]2CCO2)CC1 [Compound 424]
28.2 | 1070 | – | – | Nc1ncccc1-c1nc2ccc(-n3cccn3)nc2n1-c1ccc2c(c1)CC[C@@H]2NC1CCc2ccncc21 (single isomer, unassigned) [Example 496, (R*)—N—((S)-5-(2-(2-aminopyridin-3-yl)-5-(1H-pyrazol-1-yl)-3H-imidazo[4,5-b]pyridin-3-yl)-2,3-dihydro-1H-inden-1-yl)-6,7-dihydro-5H-cyclopenta[c]pyridin-7-amine]
– | – | 16.6 | 240 | Nc1ncccc1-c1nc2ccc(-n3cccn3)nc2n1-c1ccc2c(c1)CC[C@@H]2NC(=O)c1cc(F)c(F)c(F)c1 [Compound 343]
6.13 | 20.1 | – | – | Cc1ccc(C(=O)N[C@H]2CCc3cc(-n4c(-c5cccnc5N)nc5ccc(-c6nc(C(F)F)cs6)nc54)ccc32)cn1 [Compound 403]
– | – | 12.1 | 158 | Nc1ncccc1-c1nc2ccc(-n3cccn3)nc2n1-c1ccc2c(c1)CC[C@@H]2NC(=O)c1ccc2nccn2n1 [Compound 236]
